Assay results from patent US9011880B2, “Compounds and methods for treating cancer” (IGF Oncology, LLC, priority 2003, dated 2015).
Like-named read-outs stand apart in the source and are kept apart here.

Tests used:
[1] = humans, cited from earlier work
[2] = test system: MCF-7 (human breast carcinoma); test: Cell proliferation response to insulin and IGF-1: MCF-7; assay type: cell-based; conditions: MCF-7, minimal medium, 1 ug/ml insulin or 100 ng/ml IGF-1, 1, 2 and 4 days; data not shown
Method: (§1) The cell lines LNCAP, MCF-7, MDA-231, SCK, and HOP-92 were also tested to determine whether the cells increased their proliferation in the presence of insulin or IGF-1. Cells were plated in minimal medium with no addition (negative control), 1 ug/ml insulin, 100 ng/ml IGF-1, or 10% fetal calf serum (positive control), and cell density was monitored at 1, 2, and 4 days after plating. […] (Data not shown).

[3] = test system: SCK (mouse mammary carcinoma); test: Cell proliferation response to insulin and IGF-1: SCK; assay type: cell-based; conditions: minimal medium, 1 ug/ml insulin or 100 ng/ml IGF-1, 1, 2 and 4 days, data not shown
Method: as §1

[4] = test system: MDA-231 (human breast carcinoma); test: Cell proliferation response to insulin and IGF-1: MDA-231; assay type: cell-based; conditions: MDA-231, minimal medium, 1 ug/ml insulin or 100 ng/ml IGF-1, 1, 2 and 4 days; data not shown
Method: as §1

[5] = test system: LNCAP (human prostate carcinoma); test: Cell proliferation response to insulin and IGF-1: LNCAP; assay type: cell-based; conditions: minimal medium, 1 ug/ml insulin or 100 ng/ml IGF-1, 1, 2 and 4 days, data not shown
Method: as §1

[6] = IGF-MTX- and MTX-related toxicity in mice (ill effects, body weight); conditions: mouse, in vivo
Method: (§2) MCF7 cells (human breast adenocarcinoma cell line) were grown in Eagle's minimal essential medium supplemented with 0.1 mg/ml insulin and 10% FCS. The estrogen-dependent MCF7-L cell line was a gift from Deepali Sachdev of the University of Minnesota. MCF7-L cells were grown in modified IMEM medium (Invitrogen, Carlsbad, Calif., USA) supplemented with 0.1 mg/ml insulin. LNCaP cells (metastatic human prostatic adenocarcinoma) were grown in RPMI supplemented with glutamine and 10% FCS (Invitrogen, Carlsbad, Calif., USA). Cells were grown at 37° C. in a 5% CO2 humidified atmosphere. In each case, cells were grown to approximately two-thirds confluence, harvested by trypsinization, washed with rich medium and then washed twice with PBS and resuspended in phosphate buffered saline in BD matrigel matrix (Becton Dickinson, Franklin Lakes, N.J., USA). Cells were injected intradermally in mice on the back. An estrogen pellet (0.5 mg estradiol, 60-day release, Innovative Research of America, Sarasota, Fla., USA) was implanted subcutaneously between the shoulder blades two days before implanting MCF7 and MCF7-L cells. MCF7 and MCF7-L cells were implanted in 8-week-old female nu/nu mice. LNCaP cells were implanted in 8-week-old male nu/nu mice. […] MTX was dissolved in PBS. Untreated vehicle controls received 2 mM HCl, 1% glycerol. Drug was administered intravenously by tail-vein injection in a volume of 12.5 μl per gram mouse weight. All studies were approved by the University of Minnesota Animal Care and Use Committee and conformed to relevant ethical guidelines.

LNCAP cells [7] = test: In vitro proliferation assay, LNCaP (Example 8); assay type: cell-based, human
Method: LNCaP, MCF7 and MCF7-L cell lines were plated, respectively, in a 96-well plate at 5,000 cells per well in RPMI+glutamine+10% FCS medium in 100 μl. After 24 hours, 100 μl fresh medium was added containing no drug (control), IGF-MTX or MTX at the indicated concentration.

IGF-1R = biological target: T1, IGF-1R (Homo sapiens, UniProt P08069); test: Competitive binding assay to IGF-1R on MCF7 cell monolayers; conditions: competition against radiolabelled wild-type IGF-1, MCF7 cells
T1 construct: endogenous in cells; host or cells: MCF7 (human breast cancer cell line), near-confluent monolayers
Method: MCF7 cells were plated in a 24-well plate and incubated overnight at 37° C. in a 6.5% CO2 humidified atmosphere in DMEM+glutamine with 10% fetal calf serum (FCS) at a cell number to generate close to confluent monolayers. Cells were washed twice and placed in 0.1 M HEPES-NaOH, pH 7.5, 120 mM NaCl, 5 mM KCl, 1.2 mM MgSO4, 0.1% bovine serum albumin (binding buffer). The plate was preincubated at 4° C. for 1 hour. For the assay wells, long-R3-IGF-1 or IGF-MTX conjugate was added at the indicated concentration in binding buffer (positive controls had no addition). I^125-labeled IGF-1 was then added in the amount of 0.03 μCi per well. Plates were incubated at 4° C. overnight, and then washed twice in binding buffer. Cells were lysed with 300 mM NaOH, 1% SDS. The lysate of each well was counted by scintillation counting. Each condition was assayed in duplicate.
A competition binding assay between the IGF-MTX conjugate and radiolabelled IGF-1 was performed as described in the Materials and Methods. MCF7 cells were grown to near confluence, and incubated with unconjugated long-R3-IGF-1 or conjugated IGF-MTX in competition with radiolabelled wild-type IGF-1 (FIG. 9).

MCF7-L tumors = test: MCF7-L xenograft tumor growth in nu/nu mice; assay type: in vivo, mouse; conditions: day 22; IGF-MTX 10 nmol of MTX/g or free MTX 40 nmol/g, tail vein, days 0 and 5
Method: as §2, with “Drug was administered intravenously by tail-vein injection in a volume of 12.5 μl per gram mouse weight. All studies were approved by the University of Minnesota Animal Care and Use Committee and conformed to relevant ethical guidelines.” left out

LNCAP cells [8] = test: LNCAP proliferation in vitro (Example 5, cell counting kit-8)
Method: LNCAP cells were plated in a 96-well plate at 3,000 cells per well in RPMI medium supplemented with 10% fetal bovine serum (FBS). After incubation overnight, the medium in the wells was replaced with 100 μl per well of RPMI supplemented with 0.1% FBS. […] After incubation for 4 days, cell proliferation was assayed with the cell counting kit-8 (Dojindo Molecular Technologies, Gaithersburg, Md.).

MCF7 tumors = test: MCF7 xenograft tumor growth in nu/nu mice; assay type: in vivo, mouse
Method: as §2
Three in vivo studies were performed to assess the targeting of MTX with long-R3-IGF-1. In the initial preliminary study, breast cancer MCF7 cells were implanted intradermally in the backs of nude mice.

LNCAP tumors [9] = test: LNCaP xenograft tumor growth in nu/nu mice; assay type: in vivo, mouse; conditions: for fold lower dose at which it is or appears more effective than free MTX: LNCaP xenografts (prostate cancer model in mice)
Method: as §2
In a final in vivo study, prostate cancer LNCaP cells were implanted intradermally on day 0 in mice, which were then randomized to different treatment groups.

FSAII tumors = test: FSAII tumor growth in vivo in mice; design: species or system mouse
Method: FSAII testing. Six-week old female mice were injected subcutaneously in the thigh with 200,000 FSAII cells each in serum-free medium. Tumors were allowed to grow until they reached an average volume of 100 mm^3 (calculated as length×breadth^2). At that time, treatment was initiated. […] A fifth group of mice was untreated controls. Each group contained five mice. Mice were treated on days 0, 2, and 5. Tumor growth was measured every second day.

LNCAP tumors [10] = assay type: in vivo, mouse
Method: LNCAP testing. Eight-week old athymic male mice (nu/nu) were injected subcutaneously in the thigh with 1 million LNCAP cells in serum-free medium. Tumors were allowed to grow until they reached an average size of 100 mm^3. […] A fifth group of mice was untreated controls.

type 1 IGF receptor = conditions: cited from earlier work
[11] = high dose 60 μmoles/kg methotrexate, intraperitoneally, days 0, 2 and 5
[12] = low dose conjugate vs high dose methotrexate

T1 sequence (P08069 31-736 limits assumed): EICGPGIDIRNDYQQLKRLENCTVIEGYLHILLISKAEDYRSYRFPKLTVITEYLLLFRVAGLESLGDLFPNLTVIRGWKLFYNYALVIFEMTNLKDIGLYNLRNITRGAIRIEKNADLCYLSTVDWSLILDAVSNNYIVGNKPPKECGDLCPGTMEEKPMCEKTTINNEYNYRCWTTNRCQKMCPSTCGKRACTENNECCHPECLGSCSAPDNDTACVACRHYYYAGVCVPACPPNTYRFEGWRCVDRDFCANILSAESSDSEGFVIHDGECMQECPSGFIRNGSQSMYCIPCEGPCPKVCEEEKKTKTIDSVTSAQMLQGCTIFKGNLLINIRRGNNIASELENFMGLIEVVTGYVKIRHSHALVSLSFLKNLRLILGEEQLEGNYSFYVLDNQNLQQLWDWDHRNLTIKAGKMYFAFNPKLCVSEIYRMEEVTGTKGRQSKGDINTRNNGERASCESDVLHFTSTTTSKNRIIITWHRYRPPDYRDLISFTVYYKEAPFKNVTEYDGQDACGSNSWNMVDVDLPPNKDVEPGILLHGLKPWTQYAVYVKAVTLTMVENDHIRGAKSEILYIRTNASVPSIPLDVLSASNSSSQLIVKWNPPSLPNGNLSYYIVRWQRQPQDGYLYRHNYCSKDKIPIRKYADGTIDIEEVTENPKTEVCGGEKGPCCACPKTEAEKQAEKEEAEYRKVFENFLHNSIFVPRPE
T1 sequence (P08069 741-1367 limits assumed): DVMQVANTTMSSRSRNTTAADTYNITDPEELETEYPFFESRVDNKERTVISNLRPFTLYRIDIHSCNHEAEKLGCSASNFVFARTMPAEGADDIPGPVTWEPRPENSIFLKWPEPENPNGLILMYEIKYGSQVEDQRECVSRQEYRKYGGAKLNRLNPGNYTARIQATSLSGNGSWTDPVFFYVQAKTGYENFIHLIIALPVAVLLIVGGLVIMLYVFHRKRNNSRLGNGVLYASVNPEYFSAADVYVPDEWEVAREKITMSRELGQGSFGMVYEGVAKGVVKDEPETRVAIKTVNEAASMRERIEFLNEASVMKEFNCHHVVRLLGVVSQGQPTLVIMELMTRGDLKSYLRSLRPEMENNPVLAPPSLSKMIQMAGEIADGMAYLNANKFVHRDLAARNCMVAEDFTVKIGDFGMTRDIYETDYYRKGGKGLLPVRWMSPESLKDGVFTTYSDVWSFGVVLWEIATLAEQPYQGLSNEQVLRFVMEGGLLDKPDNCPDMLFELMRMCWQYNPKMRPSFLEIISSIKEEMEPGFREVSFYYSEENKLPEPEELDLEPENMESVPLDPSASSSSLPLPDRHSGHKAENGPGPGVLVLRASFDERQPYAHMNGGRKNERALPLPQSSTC

O=P1(N(CCCl)CCCl)NCCCO1 (centres unmarked) [cyclophosphamide]
maximum safe dosage [1]: approximately 5 millimoles per meter squared per 3 weeks | minimum effective dosage [1]: approximately 3 millimoles per meter squared per 3 weeks

CC(=O)O[C@@]12CO[C@@H]1C[C@H](O)[C@@]1(C)C(=O)[C@H](O)C3=C(C)[C@@H](OC(=O)[C@H](O)[C@@H](NC(=O)OC(C)(C)C)c4ccccc4)C[C@@](O)([C@@H](OC(=O)c4ccccc4)[C@H]21)C3(C)C [docetaxel]
maximum safe dosage ([1]; cumulative per 3 weeks): about 120 micromoles per meter squared per 3 weeks | minimum effective dosage ([1]; lowest dosage usually used): about 70 micromoles per meter squared per 3 weeks

COc1cccc2c1C(=O)c1c(O)c3c(c(O)c1C2=O)C[C@@](O)(C(=O)CO)C[C@@H]3O[C@H]1C[C@H](N)[C@H](O)[C@H](C)O1 [doxorubicin]
maximum safe dosage ([1]; cumulative per 3 weeks): approximately 130 micromoles per meter squared per 3 weeks | minimum effective dosage ([1]; lowest dosage usually used): ~100 micromoles per meter squared per 3 weeks | minimum effective dosage ([1]; per 3 weeks): about 60 mg/m^2

CC[C@]1(O)C[C@H]2CN(CCc3c([nH]c4ccccc34)[C@@](C(=O)OC)(c3cc4c(cc3OC)N(C=O)[C@H]3[C@@](O)(C(=O)OC)[C@H](OC(C)=O)[C@]5(CC)C=CCN6CC[C@]43[C@@H]65)C2)C1 [vincristine]
maximum safe dosage ([1]; cumulative per 3 weeks): about 8 micromoles per meter squared per 3 weeks | minimum effective dosage ([1]; lowest dosage usually used): about 3.25 micromoles per meter squared per 3 weeks

IGF-1: human insulin-like growth factor-1, SEQ ID NO:1
stimulation of proliferation [2]: stimulated proliferation | stimulation of proliferation [3]: stimulated proliferation | stimulation of proliferation [4]: stimulated proliferation | stimulation of proliferation [5]: stimulated proliferation

IGF-MTX
Average weight of mice, Day 0 [6]: 17.8 g | Average weight of mice, Day 4 [6]: 18.6 g | Average weight of mice, Day 20 [6]: 20.1 g | inhibition of proliferation compared to untreated control cells (LNCAP cells [7]; LNCaP): inhibited proliferation of LNCaP cells | higher concentration than free MTX required to achieve the same inhibitory effect (LNCAP cells [7]; LNCaP cells in vitro): about 2 times | IC50 (LNCAP cells [7]; LNCaP, RPMI + 10% FCS, 48 hours with drug, IGF-MTX as concentration of MTX groups): ~1000 nM | binding to the IGF receptor compared with long-R3-IGF-1 (IGF-1R): bound more tightly to the IGF receptor than long-R3-IGF-1 at most concentrations | MCF7-L tumor growth inhibition (MCF7-L tumors): inhibited about equally | Cell number (relative units) (LNCAP cells [8]; Minimal med. (0.1% FBS), MTX conc. 2 nM): .677 ± .057 relative units | Cell number (relative units) (LNCAP cells [8]; Minimal med. (0.1% FBS), MTX conc. 8 nM): .794 ± .028 relative units | Cell number (relative units) (LNCAP cells [8]; Minimal med. (0.1% FBS), MTX conc. 32 nM): .921 ± .014 relative units | Cell number (relative units) (LNCAP cells [8]; Minimal med. (0.1% FBS), MTX conc. 125 nM): .921 ± .014 relative units | Cell number (relative units) (LNCAP cells [8]; Minimal med. (0.1% FBS), MTX conc. 500 nM): .635 ± .038 relative units | Cell number (relative units) (LNCAP cells [8]; Minimal med. (0.1% FBS), MTX conc. 2000 nM): .255 ± .014 relative units | Cell number (relative units) (LNCAP cells [8]; Rich medium (10% FBS), MTX conc. 2 nM): 0.716 ± .021 relative units | Cell number (relative units) (LNCAP cells [8]; Rich medium (10% FBS), MTX conc. 8 nM): 0.674 ± .036 relative units | Cell number (relative units) (LNCAP cells [8]; Rich medium (10% FBS), MTX conc. 32 nM): 1.248 ± .018 relative units | Cell number (relative units) (LNCAP cells [8]; Rich medium (10% FBS), MTX conc. 125 nM): 0.891 ± .017 relative units | Cell number (relative units) (LNCAP cells [8]; Rich medium (10% FBS), MTX conc. 500 nM): 0.381 ± .008 relative units | Cell number (relative units) (LNCAP cells [8]; Rich medium (10% FBS), MTX conc. 2000 nM): 0.234 ± .004 relative units | MCF7 tumor growth (MCF7 tumors; 10 nmol of MTX/g intravenous, days 0, 4 and 8, 12 days of observation): showed no signs of tumor growth on average | fold lower molar dosage at which more effective than free MTX (MCF7 tumors; MCF7 xenografts): 4 fold | difference in tumor volume on average between IGF-MTX conjugate-treated group and MTX-treated group (MCF7 tumors; day 12, IGF-MTX 10 nmol of MTX/g vs free MTX 40 nmol/g): ~8 fold | LNCaP tumor growth inhibition (LNCAP tumors [9]; 1.28 nmol/g (as MTX), single tail vein injection on day 5): did not inhibit tumor growth | LNCaP tumor size compared to mice treated with higher doses of free MTX (50, 20 or 8 nmol/g) (LNCAP tumors [9]; 3.2 nmol/g (as MTX), single tail vein injection on day 5): much smaller | LNCaP tumor size compared to mice treated with higher doses of free MTX (50, 20 or 8 nmol/g) (LNCAP tumors [9]; 8 nmol/g (as MTX), single tail vein injection on day 5): much smaller | fold lower dose at which more effective than free MTX (statistically significant) (LNCAP tumors [9]; 8 nmol/g IGF-MTX vs. 50 nmol/g MTX, day 98, listed as IGF-methotrexate conjugate): 6.5 fold | fold lower dose at which it is or appears more effective than free MTX (LNCAP tumors [9]; listed as IGF-MTX conjugate): more than 15 fold | fold lower dose at which it is or appears more effective than free MTX (LNCAP tumors [9]; listed as IGF-methotrexate conjugate): 15 fold

insulin-methotrexate conjugate: approximately 3 MTX attached to each insulin by direct amide bonds to the two alpha amino groups and one lysine side chain
effect on FSAII tumor growth (FSAII tumors; [11]): appeared to very significantly slow tumor growth | toxicity (death of mice) (FSAII tumors; [11]): killed all five mice by one day following the third treatment | effect on FSAII tumor growth (FSAII tumors; low dose 15 μmoles/kg methotrexate, intraperitoneally, days 0, 2 and 5): significantly slowed tumor growth | activity against FSAII tumors in vivo relative to unconjugated methotrexate (FSAII tumors; [12]): at least 4 fold | effect on LNCAP tumor growth (LNCAP tumors [10]; low dose 15 μmoles/kg methotrexate, days 0, 4, 8, 18, 22 and 26): appeared to slow tumor growth | lower concentration at which effective against LNCAP tumors relative to unconjugated methotrexate (LNCAP tumors [10]; [12]): at least 2.6 times

insulin: insulin
stimulation of proliferation [2]: stimulated proliferation | stimulation of proliferation [3]: stimulated proliferation | stimulation of proliferation [4]: stimulated proliferation | stimulation of proliferation [5]: stimulated proliferation

long-R3-IGF-1: variant of IGF-1, SEQ ID NO:4, reduced binding affinity for soluble IGF binding proteins (GroPep)
binding affinity for the type 1 IGF receptor compared to wild-type IGF-1 (type 1 IGF receptor): equal binding affinity
